Experimental data from the supplement of paper PMC10307832.

Assays:
Test in all cases: relative viability (nuclei count vs DMSO), 5 days (fraction); higher = more cells survive
YM155 + Palbociclib = compound: COCC[n+]1c2c(n(Cc3cnccn3)c1C)C(=O)c1ccccc1C2=O [YM155] + CC(=O)c1c(C)c2cnc(Nc3ccc(N4CCNCC4)cn3)nc2n(C2CCCC2)c1=O [Palbociclib] (partner 0.5 µM)
How it was run: (§1)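 Relative viability was taken as the ratio of nuclei in treated wells to nuclei in vehicle wells. Lung cancer cell lines in 1536-well plates received compounds by pin tool one day after seeding, either one drug alone or a fixed anchor-drug dose plus five library-drug doses (not always all listed) in √10 steps. Nuclei were counted on 4× images after 5 days of treatment, and values are medians of duplicate plates.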

YM155 + Decitabine = compound: COCC[n+]1c2c(n(Cc3cnccn3)c1C)C(=O)c1ccccc1C2=O [YM155] + Nc1ncn([C@H]2C[C@H](O)[C@@H](CO)O2)c(=O)n1 [Decitabine] (partner 2 µM)
How it was run: as §1

Quizartinib + Crizotinib = compound: CC(C)(C)c1cc(NC(=O)Nc2ccc(-c3cn4c(n3)sc3cc(OCCN5CCOCC5)ccc34)cc2)no1 [Quizartinib] + C[C@@H](Oc1cc(-c2cnn(C3CCNCC3)c2)cnc1N)c1c(Cl)ccc(F)c1Cl [Crizotinib] (partner 1 µM)
How it was run: as §1

Quizartinib + Linsitinib = compound: CC(C)(C)c1cc(NC(=O)Nc2ccc(-c3cn4c(n3)sc3cc(OCCN5CCOCC5)ccc34)cc2)no1 [Quizartinib] + C[C@]1(O)C[C@@H](c2nc(-c3ccc4ccc(-c5ccccc5)nc4c3)c3c(N)nccn32)C1 [Linsitinib] (partner 1 µM)
How it was run: as §1

Row | Cell Line | relative viability (YM155 + Palbociclib; first compound 0.002 µM) | relative viability (YM155 + Palbociclib; first compound 0.006325 µM) | relative viability (YM155 + Palbociclib; first compound 0.02 µM) | relative viability (YM155 + Palbociclib; first compound 0.06325 µM) | relative viability (YM155 + Decitabine; first compound 0.002 µM) | relative viability (YM155 + Decitabine; first compound 0.006325 µM) | relative viability (YM155 + Decitabine; first compound 0.02 µM) | relative viability (YM155 + Decitabine; first compound 0.06325 µM) | relative viability (Quizartinib + Crizotinib; first compound 0.001 µM) | relative viability (Quizartinib + Crizotinib; first compound 0.003162 µM) | relative viability (Quizartinib + Crizotinib; first compound 0.01 µM) | relative viability (Quizartinib + Crizotinib; first compound 0.1 µM) | relative viability (Quizartinib + Linsitinib; first compound 0.001 µM) | relative viability (Quizartinib + Linsitinib; first compound 0.003162 µM) | relative viability (Quizartinib + Linsitinib; first compound 0.01 µM) | relative viability (Quizartinib + Linsitinib; first compound 0.1 µM) | relative viability (Quizartinib + Crizotinib; first compound 0.03162 µM) | relative viability (Quizartinib + Linsitinib; first compound 0.03162 µM)
1 | NCI-H2342 | 0.515 | 0.496 | 0.475 | 0.54 | 0.729 | 0.709 | 0.788 | 0.717 |  |  |  |  |  |  |  |  |  | 
2 | NCI-H522 | 1.01 | 1.01 | 1.18 | 1.06 | 0.72 | 0.664 | 0.684 | 0.668 |  |  |  |  |  |  |  |  |  | 
3 | NCI-H1563 |  |  |  |  |  |  |  |  | 0.825 | 0.851 | 0.982 | 0.78 | 1.01 | 1.04 | 1.17 | 0.972 |  | 
4 | NCI-H596 |  |  |  |  | 0.886 | 1 | 1.02 | 1.04 | 0.971 | 1 | 1.09 | 0.761 | 1.06 | 0.985 | 1.06 | 1.03 | 0.932 | 1.12
5 | NCI-H2228 | 0.573 | 0.69 | 0.752 | 0.714 |  |  |  |  | 0.439 | 0.414 | 0.317 | 0.429 | 0.736 | 0.699 | 0.808 | 0.624 | 0.418 | 0.534
6 | NCI-H2170 | 0.418 | 0.473 | 0.389 | 0.376 | 0.506 | 0.508 | 0.42 | 0.516 | 1.15 | 1.11 | 1.17 | 1.19 |  |  |  |  | 1.2 | 
7 | A549 |  |  |  |  | 0.413 | 0.215 | 0.29 | 0.24 | 0.703 | 0.691 | 0.879 | 0.686 |  | 0.49 | 0.61 | 0.787 | 0.457 | 0.611
